Experimental data as given in patent publication US5498624A, “Selected pyrazolyl derivatives” (Monsanto Company, priority 1995, dated 1996).

What was measured:
Format in all cases: in vivo
[1] = tested on: Venturia inaequalis; experiment: Apple Scab Foliar Assay (ASC Prot); settings: apple seedlings
Procedure: A) Host Propagation--Apple, var. McIntosh, are collected form trees in the field and stored in a cold room at 4° C. After a minimum of 60 days storage, seed are collected and germinated in vermiculite in 3 inch pots in a growth chamber set at 27° C. day and 23° C. night temperature. When seedlings have emerged and 2-3 true leaves formed, the seedling are transplanted into 4 inch square pots containing a soil medium consisting of commercial potting mix. Seedlings are grown in this medium to the 8-10 leaf stage for use in tests. Before each test, the petiole of the smallest unfolded leaf is marked, with this leaf and the immediate five older leaves sprayed and inoculated in the test. The petiole of the oldest sprayed and inoculated leaf is also marked. The marking facilitates data collection for specific leaves and identification of the application site.
B) Test Compound Preparation--Compounds of the present invention are applied to the upper and lower leaf surfaces of the identified leaves at the rate of 100 and 20 ppm using a DiVilbiss Model 152 hand sprayer. Four plants per treatment are sprayed with 12 mls of spray solution which contains 40% acetone, 59.9% water, and 0.1% Triton B1956. Nova® (myclobutanil) is used as the commercial standard. It is suspended in water and applied at equivalent rates.
C) Pathogen/Inoculum Production--Inoculum from the apple scab pathogen, Venturia inaequalis, is obtained directly by washing conidia off of scab lesions from leaves on apple seedlings or by use of previously collected conidial suspension that has been frozen in a glass vial at -80° C. Conidial suspension concentration is adjusted to approximately 1×10^5 spores/ml by dilution with a solution of 1% v/v V8 juice/water. […]
D) Test Evaluation--Phytotoxicity data, and leaf burning, etc. is collected by treatment at the time of pathogen inoculation and at disease evaluation. Disease is evaluated on day 8-12 by estimating the amount of treated leaf tissue that is covered by apple scab lesions or symptoms. […] The percentage control is calculated as in the above examples.

[2] = tested on: Erysiphe graminis f. sp. tritici; experiment: Wheat Powdery Mildew Foliar Curative Treatment (WPM Cur); settings: 20 ppm foliar curative, inoculation 48 hours prior to application
Procedure: A) Pathogen/Inoculum Production follow as per Example 2. (B) Host Propagation, (C) Compound Preparation and (D) Compound Application follow as per Example 1.
E) Inoculation/Incubation--Inoculation is accomplished as per Example 1, 48 hours prior to compound application. The incubation period is temporarily interrupted for chemical treatment, the plants are allowed to dry and then returned to the incubation chamber.
(G) Evaluation and (H) Data follow as per Example 1. The percent protection values for the compounds of the present invention are as set out in the Table below.

[3] = tested on: Septoria nodorum; experiment: Wheat Glume Blotch Foliar Assay, curative (WGB Cur); settings: application two days post-inoculation, * = averaged value
Procedure: A) Host Propagation--Winter wheat plants, cv. Caldwell, are grown in 5.7 cm^2 pots, three per pot, and maintained in a growth chamber set at 20° C., 80% RH with a 12 hour photoperiod.
B) Compound Preparation--A 1.0% stock solution of each of the compounds of the present invention is first prepared utilizing an appropriate solvent such as acetone, water or DMSO. This stock is then used to prepare the final spray solution which contains the compound at the desired dosage, eg 100 ppm and 20 ppm, acetone at 20% v/v, Tween®20 at .05% w/v, and water at about 80%. Commercial standard used is tebuconazole at equivalent rates.
C) Compound Application, Seedlings are sprayed at the two-leaf stage (GS 12) using a DeVilbiss Model 152 hand operated sprayer set at 15-20 psi. Six ml of the test solution per treatment are applied to three pots. In the protectant assay (EXAMPLE 8), the compound application is made two days pre-inoculation. In the curative assay (EXAMPLE 9), the compound is applied during a brief interruption of the disease incubation period two days post-inoculation. […]
E) Test Evaluation--Eight to ten days after removal from the high humidity chamber, or twelve to fourteen days after inoculation, treatments are evaluated by visually estimating the percentage of the leaf area (on the first leaf) covered with lesions. […] Percent disease, as well as percent control values are calculated. […]

[4] = tested on: Venturia inaequalis; experiment: Apple Scab Foliar Assay (ASC Cur); settings: 20 ppm, sprayed 72 hours after inoculation, apple seedlings
Procedure: Apple Scab Foliar Assay Methods (ASC Cur)--This assay is that of Example 1 except for the sequence of the chemical application and pathogen inoculation events. One month old apple seedlings are inoculated as described. 72 hours later, the plants are removed from the mist chamber and sprayed with the test chemicals and then returned to the mist-chamber after 1 to 2 hours. Disease evaluation is made on day 8-12.

Compound	ASC Prot percentage control ([1]; 20 ppm foliar protectant)	ASC Prot percentage control ([1]; 100 ppm foliar protectant)	WPM Cur percent disease control [2]	WGB Cur percent control ([3]; 20 ppm)	WGB Cur percent control ([3]; 100 ppm)	ASC Cur percentage control [4]
C[C@@H]1CCC[C@H](c2ccccc2NC(=O)c2cn(C)nc2C(F)F)C1 (relative stereo) [Number 2, 1H-pyrazole-4-carboxamide, 3-(difluoromethyl)-1-methyl-N-[2-(-3-methylcyclohexyl)phenyl]-, cis-]	58%	99%				
C[C@H]1CCC[C@H](c2ccccc2NC(=O)c2cn(C)nc2C(F)F)C1 (relative stereo) [Number 3, 1H-pyrazole-4-carboxamide, 3-(difluoromethyl)-1-methyl-N-[2-(3-methylcyclohexyl)phenyl]-, trans-]	90%		89%	62%	67%	69%
